Data from the supplement of paper PMC11061612.

Key:
Assay in all cases: combination Emax (second highest fraction inhibited in the dose matrix, 72 h); higher = more inhibition; extreme values may be limits of the assay
[1] = test system: CFPAC-1 (Pancreatic Carcinoma)
Outline: (§1)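 After 24 hours at 37°C and 5% CO2 in 1536-well plates, cells in DMEM/F12 or RPMI plus 10% FBS received two-drug dose matrices for 72 hours. Viability came from CellTiter-Glo 2.0 luminescence and was scaled as inhibition, anchored at 0 by vehicle wells and at 1 by blank wells. Combination Emax is taken as the second-highest inhibition in the matrix, and Bliss excess as the observed combination effect less EA + EB − EA·EB, with EA and EB the single-agent effects.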

[2] = test system: COR-L23 (Non-Small Cell Lung Carcinoma)
Outline: as §1

[3] = test system: COR-L95 (Small Cell Lung Carcinoma)
Outline: as §1

[4] = test system: HPAC (Pancreatic Carcinoma)
Outline: as §1

[5] = test system: HT-29 (Colorectal Carcinoma)
Outline: as §1

[6] = test system: IHH-4 (Thyroid Gland Carcinoma)
Outline: as §1

[7] = test system: KM-H2 (Hodgkin's Lymphoma)
Outline: as §1

[8] = test system: MDA-MB-157 (Breast Carcinoma)
Outline: as §1

[9] = test system: NCI-H1694 (Small Cell Lung Carcinoma)
Outline: as §1

[10] = test system: NCI-H1781 (Lung Adenocarcinoma)
Outline: as §1

NCI-H2369 (Mesothelioma) = test system: NCI-H2369 (Mesothelioma)
Outline: as §1

[11] = test system: OCI-AML2 (Acute Myeloid Leukemia)
Outline: as §1

RH-1 (Ewing's Sarcoma) = test system: RH-1 (Ewing's Sarcoma)
Outline: as §1

[12] = test system: SNU-C5 (Colorectal Carcinoma)
Outline: as §1

[13] = test system: SW1783 (Low Grade Glioma)
Outline: as §1

[14] = test system: SW1990 (Pancreatic Carcinoma)
Outline: as §1

[15] = test system: SW756 (Cervical Carcinoma)
Outline: as §1

[16] = test system: SW780 (Bladder Carcinoma)
Outline: as §1

[17] = test system: TGBC24TKB (Biliary Tract Carcinoma)
Outline: as §1

[18] = test system: U-266 (Plasma Cell Myeloma)
Outline: as §1

| SMILES | combination Emax [7] | combination Emax [1] | combination Emax [2] | combination Emax [3] | combination Emax [4] | combination Emax [5] | combination Emax [6] | combination Emax [8] | combination Emax [9] | combination Emax [10] | combination Emax (NCI-H2369 (Mesothelioma)) | combination Emax [11] | combination Emax (RH-1 (Ewing's Sarcoma)) | combination Emax [12] | combination Emax [13] | combination Emax [14] | combination Emax [15] | combination Emax [16] | combination Emax [17] | combination Emax [18] |
| --- | --- | --- | --- | --- | --- | --- | --- | --- | --- | --- | --- | --- | --- | --- | --- | --- | --- | --- | --- | --- |
| Cn1cnc2c(F)c(Nc3ccc(Br)cc3Cl)c(C(=O)NOCCO)cc21 [Selumetinib] + CCN(CCO)CCCOc1ccc2c(Nc3cc(CC(=O)Nc4cccc(F)c4)[nH]n3)ncnc2c1 [AZD2811] (first compound max 10 µM, 7x7, partner max 1 µM) | 0.168 | 0.292 | 0.467 | 0.21 | 0.906 | 0.715 | 0.586 | 0.215 | 0.385 | 0.623 | 0.203 | 1 | 0.935 | 0.436 | 0.0665 | 0.245 | 0.294 | 0.435 | 0.551 | 0.594 |
| C[C@@H]1COCCN1c1cc(C2([S@](C)(=N)=O)CC2)nc(-c2ccnc3[nH]ccc23)n1 [AZD6738] + O=C(c1cc(Cc2n[nH]c(=O)c3ccccc23)ccc1F)N1CCN(C(=O)C2CC2)CC1 [Olaparib] (first compound max 10 µM, 7x7, partner max 10 µM) | 0.785 |  | 0.42 | 0.517 | 0.416 | 0.799 | 0.773 | 0.85 | 0.734 | 0.59 | 0.133 | 0.988 | 0.965 | 0.696 | 0.407 | 0.471 | 0.228 | 0.181 | 0.693 | 0.584 |
| COc1nnc2ccc(N3CCC(c4ccc(OCCN5CCN(C)C(=O)[C@H]5C)cc4)CC3)nn12 [AZD5153] + CN(CC[C@H](CSC1=CC=CC=C1)NC2=C(C=C(C=C2)S(=O)(=O)NC(=O)C3=CC=C(C=C3)N4CCC(CC4)[C@H](C5=CC=CC=C5C6=CC=C(C=C6)Cl)O)S(=O)(=O)C(F)(F)F)CCO [AZD4320] (first compound max 1 µM, 7x7, partner max 1 µM) | 0.551 | 0.401 | 0.424 |  | 0.713 | 0.774 |  |  | 1 | 0.251 | 0.299 |  | 0.49 | 0.569 |  |  | 0.34 | 0.369 | 0.932 |  |
| CCc1c2c(nc3ccc(O)cc13)-c1cc3c(c(=O)n1C2)COC(=O)[C@]3(O)CC [SN-38] + O=C(c1cc(Cc2n[nH]c(=O)c3ccccc23)ccc1F)N1CCN(C(=O)C2CC2)CC1 [Olaparib] (first compound max 0.3 µM, 7x7, partner max 10 µM) |  | 0.831 | 0.675 | 0.85 | 0.246 | 0.936 | 0.921 | 0.725 |  | 1 | 0.265 | 0.999 | 1 |  | 0.862 | 0.419 | 0.766 |  | 0.472 | 0.367 |
| CN(CCO)CC[C@H](CSc1ccccc1)Nc1ccc(S(=O)(=O)NC(=O)c2ccc(N3CCC([C@@H](O)c4ccccc4-c4ccc(Cl)cc4)CC3)cc2)cc1S(=O)(=O)C(F)(F)F [AZD4320] + C[C@@H](Nc1cc(F)cc(F)c1)c1cc(C(=O)N(C)C)cc2c(=O)cc(N3CCOCC3)oc12 [AZD8186] (first compound max 1 µM, 7x7, partner max 3 µM) |  | 0.424 | 0.332 | 1 | 0.562 | 0.278 | 0.516 | 0.349 | 0.978 | 0.623 | 0.375 | 1 | 0.885 | 0.399 | 0.663 | 0.388 | 0.373 | 0.742 | 0.544 | 0.481 |
| CC(=O)c1c(C)c2cnc(Nc3ccc(N4CCNCC4)cn3)nc2n(C2CCCC2)c1=O [Palbociclib] + CN(CC[C@H](CSC1=CC=CC=C1)NC2=C(C=C(C=C2)S(=O)(=O)NC(=O)C3=CC=C(C=C3)N4CCC(CC4)[C@H](C5=CC=CC=C5C6=CC=C(C=C6)Cl)O)S(=O)(=O)C(F)(F)F)CCO [AZD4320] (first compound max 10 µM, 7x7, partner max 1 µM) | 0.608 | 0.419 | 0.298 |  | 0.497 | 0.498 |  |  | 0.941 | 0.476 | 0.259 |  | 0.684 | 0.388 |  |  | 0.293 | 0.395 | 0.736 |  |
| CN(C)CCCOc1ccc(-c2ccc3ncc4c(c3c2)n(C2CCOCC2)c(=O)n4C)cn1 [AZD0156] + O=C(c1cc(Cc2n[nH]c(=O)c3ccccc23)ccc1F)N1CCN(C(=O)C2CC2)CC1 [Olaparib] (first compound max 3 µM, partner max 3 µM) | 0.401 | 0.434 | 0.39 | 0.373 | 0.36 | 0.407 | 0.516 | 0.27 |  | 0.585 | 0.181 | 0.67 | 0.649 | 0.325 | 0.401 | 0.16 | 0.155 | 0.183 | 0.457 | 0.171 |
| C[C@@H](c1ccc2nccn2c1)n1nnc2ncc(-c3cnn(C)c3)nc21 [Savolitinib] + CN(CC[C@H](CSC1=CC=CC=C1)NC2=C(C=C(C=C2)S(=O)(=O)NC(=O)C3=CC=C(C=C3)N4CCC(CC4)[C@H](C5=CC=CC=C5C6=CC=C(C=C6)Cl)O)S(=O)(=O)C(F)(F)F)CCO [AZD4320] (first compound max 1 µM, 7x7, partner max 1 µM) | 0.146 | 0.143 | 0.184 |  | 0.343 | 0.172 |  |  | 0.622 | 0.287 | 0.114 |  | 0.488 | 0.173 |  |  | 0.246 | 0.393 | 0.561 |  |

Now from value to molecule, other results behind:

| combination Emax [7] | SMILES | combination Emax [1] | combination Emax [2] | combination Emax [3] | combination Emax [4] | combination Emax [5] | combination Emax [6] | combination Emax [8] | combination Emax [9] | combination Emax [10] | combination Emax (NCI-H2369 (Mesothelioma)) | combination Emax [11] | combination Emax (RH-1 (Ewing's Sarcoma)) | combination Emax [12] | combination Emax [13] | combination Emax [14] | combination Emax [15] | combination Emax [16] | combination Emax [17] | combination Emax [18] |
| --- | --- | --- | --- | --- | --- | --- | --- | --- | --- | --- | --- | --- | --- | --- | --- | --- | --- | --- | --- | --- |
| 0.327 | CN(C)CCCOc1ccc(-c2ccc3ncc4c(c3c2)n(C2CCOCC2)c(=O)n4C)cn1 [AZD0156] + CCN(CCO)CCCOc1ccc2c(Nc3cc(CC(=O)Nc4cccc(F)c4)[nH]n3)ncnc2c1 [AZD2811] (first compound max 1 µM, 7x7, partner max 1 µM) | 0.0885 | 0.116 | 0.208 | 0.206 | 0.166 | 0.322 | 0.153 | 0.278 | 0.608 | 0.0791 | 0.773 | 0.956 | 0.224 | 0.0598 | 0.0964 | 0.125 | 0.205 | 0.505 | 0.299 |
| 0.143 | Cc1c2c(nn1C)CSCc1cc(n(C)n1)CSc1cc(c3ccccc3c1)OCCCc1c(C(=O)O)n(C)c3c-2c(Cl)ccc13 [AZD5991] + C1CN(CCC1(C(=O)N[C@@H](CCO)C2=CC=C(C=C2)Cl)N)C3=NC=NC4=C3C=CN4 [Capivasertib] (first compound max 1 µM, 7x7, partner max 3 µM) | 0.2 | 0.182 | 0.409 | 0.13 | 0.236 |  | 0.714 | 1 | 0.76 | 0.22 | 1 | 0.795 |  | 0.352 | 0.121 | 0.136 | 0.165 | 0.175 | 0.97 |
| 0.201 | Cc1c2c(nn1C)CSCc1cc(n(C)n1)CSc1cc(c3ccccc3c1)OCCCc1c(C(=O)O)n(C)c3c-2c(Cl)ccc13 [AZD5991] + CN(C)CCCOc1ccc(-c2ccc3ncc4c(c3c2)n(C2CCOCC2)c(=O)n4C)cn1 [AZD0156] (first compound max 1 µM, 7x7, partner max 1 µM) | 0.209 |  | 0.378 | 0.586 | 0.254 | 0.265 | 0.69 | 0.98 | 0.665 | 0.208 | 0.961 | 0.666 | 0.196 | 0.218 | 0.241 | 0.203 | 0.206 | 0.165 | 0.919 |
| 0.949 | C=CCn1c(=O)c2cnc(Nc3ccc(N4CCN(C)CC4)cc3)nc2n1-c1cccc(C(C)(C)O)n1 [AZD1775] + C1CN(CCC1(C(=O)N[C@@H](CCO)C2=CC=C(C=C2)Cl)N)C3=NC=NC4=C3C=CN4 [Capivasertib] (first compound max 3 µM, partner max 3 µM) | 0.723 | 0.895 | 0.666 | 0.636 | 0.834 | 0.91 | 0.837 |  | 0.858 | 0.3 | 0.988 | 0.98 | 0.795 | 0.688 | 0.584 | 0.555 | 0.399 | 0.811 | 0.795 |
| 0.172 | Cc1c2c(nn1C)CSCc1cc(n(C)n1)CSc1cc(c3ccccc3c1)OCCCc1c(C(=O)O)n(C)c3c-2c(Cl)ccc13 [AZD5991] + Cc1cc2ncnn2cc1Nc1ncc2c(n1)n(C1CCOCC1)c(=O)n2C [AZD7648] (first compound max 1 µM, 7x7, partner max 10 µM) | 0.259 | 0.131 | 0.315 | 0.254 | 0.223 | 0.35 | 0.708 | 0.998 | 0.515 | 0.17 | 0.967 | 0.605 | 0.267 | 0.256 | 0.218 | 0.196 |  | 0.243 | 0.945 |
